US20230257396A1, “MACROCYCLES AND THEIR USE” (BLOSSOMHILL THERAPEUTICS, INC., priority 2020, published 2023)

Columns and labels:
Assay in all cases: KINOMEscan kinase binding assay (Eurofins/DiscoveRx), % Ctrl
[1] = molecular target: T1, kinases (Homo sapiens, UniProt P00533, T790M); settings: 1 μM; EGFR(T790M)
T1 construct: purchased Eurofins/DiscoveRx; host or cells: E. coli BL21-derived host (T7 phage display) for most kinases; HEK-293 for the rest
Outline: (§1)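 Competition binding, 1 h RT: phage-tagged or HEK-293-expressed DNA-tagged kinase + immobilized ligand + compound. Eluate kinase by qPCR. % Ctrl = (test − positive ctrl)/(negative ctrl − positive ctrl) × 100; lower means stronger binding.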

[2] = molecular target: T2, kinases (Homo sapiens, UniProt P00533, L861Q); settings: 1 μM; EGFR(L861Q)
T2 construct: purchased Eurofins/DiscoveRx; host or cells: E. coli BL21-derived host (T7 phage display) for most kinases; HEK-293 for the rest
Outline: as §1

[3] = molecular target: T3, kinases (Homo sapiens, UniProt P36888, D835V); settings: 1 μM; FLT3(D835V)
T3 construct: purchased Eurofins/DiscoveRx; host or cells: E. coli BL21-derived host (T7 phage display) for most kinases; HEK-293 for the rest
T3 sequence (P36888 27-993 D835V): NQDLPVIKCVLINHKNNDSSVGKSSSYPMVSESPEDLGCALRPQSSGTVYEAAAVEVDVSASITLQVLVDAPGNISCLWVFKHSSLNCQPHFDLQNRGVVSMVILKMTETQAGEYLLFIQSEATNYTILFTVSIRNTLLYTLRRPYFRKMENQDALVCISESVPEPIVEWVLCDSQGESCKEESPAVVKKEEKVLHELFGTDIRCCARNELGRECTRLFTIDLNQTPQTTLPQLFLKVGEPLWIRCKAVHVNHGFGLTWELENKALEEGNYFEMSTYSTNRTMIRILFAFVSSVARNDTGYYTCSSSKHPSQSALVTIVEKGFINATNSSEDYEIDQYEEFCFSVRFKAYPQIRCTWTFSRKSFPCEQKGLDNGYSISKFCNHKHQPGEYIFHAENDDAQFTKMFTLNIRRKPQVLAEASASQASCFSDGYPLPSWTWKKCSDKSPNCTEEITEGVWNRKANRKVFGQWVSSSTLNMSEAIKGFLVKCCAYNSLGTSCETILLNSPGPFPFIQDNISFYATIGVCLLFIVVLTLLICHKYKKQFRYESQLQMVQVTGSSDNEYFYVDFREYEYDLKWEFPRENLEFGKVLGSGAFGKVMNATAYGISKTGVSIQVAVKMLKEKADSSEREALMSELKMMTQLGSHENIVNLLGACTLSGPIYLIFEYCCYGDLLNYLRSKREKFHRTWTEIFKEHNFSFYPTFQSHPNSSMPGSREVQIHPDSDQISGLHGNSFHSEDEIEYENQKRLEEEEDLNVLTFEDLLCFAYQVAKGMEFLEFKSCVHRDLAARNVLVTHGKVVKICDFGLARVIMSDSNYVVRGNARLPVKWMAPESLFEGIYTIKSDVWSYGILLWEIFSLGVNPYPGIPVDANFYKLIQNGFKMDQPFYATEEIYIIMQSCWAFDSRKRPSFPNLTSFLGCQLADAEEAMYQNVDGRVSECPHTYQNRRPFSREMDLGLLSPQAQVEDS
Outline: as §1

[4] = molecular target: T4, kinases (Homo sapiens, UniProt P42684); settings: 1 μM; ABL2
T4 construct: purchased Eurofins/DiscoveRx; host or cells: E. coli BL21-derived host (T7 phage display) for most kinases; HEK-293 for the rest
Outline: as §1

[5] = molecular target: T5, kinases (Homo sapiens, UniProt P10721, L576P); settings: 1 μM; KIT(L576P)
T5 construct: purchased Eurofins/DiscoveRx; host or cells: E. coli BL21-derived host (T7 phage display) for most kinases; HEK-293 for the rest
Outline: as §1

[6] = molecular target: T6, kinases (Homo sapiens, UniProt P00519, M351T); settings: 1 μM; ABL1(M351T)-phosphorylated
T6 construct: purchased Eurofins/DiscoveRx; host or cells: E. coli BL21-derived host (T7 phage display) for most kinases; HEK-293 for the rest
Outline: as §1

[7] = molecular target: T7, kinases (Homo sapiens, UniProt P10721, D816H); settings: 1 μM; KIT(D816H)
T7 construct: purchased Eurofins/DiscoveRx; host or cells: E. coli BL21-derived host (T7 phage display) for most kinases; HEK-293 for the rest
Outline: as §1

[8] = molecular target: T8, kinases (Homo sapiens, UniProt P00519, E255K); settings: 1 μM; ABL1(E255K)-phosphorylated
T8 construct: purchased Eurofins/DiscoveRx; host or cells: E. coli BL21-derived host (T7 phage display) for most kinases; HEK-293 for the rest
Outline: as §1

[9] = molecular target: T9, kinases (Homo sapiens, UniProt P00533, G719S); settings: 1 μM; EGFR(G719S)
T9 construct: purchased Eurofins/DiscoveRx; host or cells: E. coli BL21-derived host (T7 phage display) for most kinases; HEK-293 for the rest
Outline: as §1

[10] = molecular target: T10, kinases (Homo sapiens, UniProt P00519, Q252H); settings: 1 μM
T10 construct: purchased Eurofins/DiscoveRx; host or cells: E. coli BL21-derived host (T7 phage display) for most kinases; HEK-293 for the rest
Outline: as §1

[11] = molecular target: T11, kinases (Homo sapiens, UniProt P00519, H396P); settings: 1 μM
T11 construct: purchased Eurofins/DiscoveRx; host or cells: E. coli BL21-derived host (T7 phage display) for most kinases; HEK-293 for the rest
Outline: as §1

[12] = molecular target: T12, kinases (Homo sapiens, UniProt P00533); settings: 1 μM; EGFR
T12 construct: purchased Eurofins/DiscoveRx; host or cells: E. coli BL21-derived host (T7 phage display) for most kinases; HEK-293 for the rest
Outline: as §1

[13] = molecular target: T13, kinases (Homo sapiens, UniProt P07949, V804L); settings: 1 μM; RET(V804L)
T13 construct: purchased Eurofins/DiscoveRx; host or cells: E. coli BL21-derived host (T7 phage display) for most kinases; HEK-293 for the rest
Outline: as §1

[14] = molecular target: T14, kinases (Homo sapiens, UniProt P07949); settings: 1 μM; RET
T14 construct: purchased Eurofins/DiscoveRx; host or cells: E. coli BL21-derived host (T7 phage display) for most kinases; HEK-293 for the rest
Outline: as §1

[15] = molecular target: T15, kinases (Homo sapiens, UniProt P00519, Y253F); settings: 1 μM; ABL1(Y253F)-phosphorylated
T15 construct: purchased Eurofins/DiscoveRx; host or cells: E. coli BL21-derived host (T7 phage display) for most kinases; HEK-293 for the rest
Outline: as §1

T13 sequence (P07949 29-1114 V804L): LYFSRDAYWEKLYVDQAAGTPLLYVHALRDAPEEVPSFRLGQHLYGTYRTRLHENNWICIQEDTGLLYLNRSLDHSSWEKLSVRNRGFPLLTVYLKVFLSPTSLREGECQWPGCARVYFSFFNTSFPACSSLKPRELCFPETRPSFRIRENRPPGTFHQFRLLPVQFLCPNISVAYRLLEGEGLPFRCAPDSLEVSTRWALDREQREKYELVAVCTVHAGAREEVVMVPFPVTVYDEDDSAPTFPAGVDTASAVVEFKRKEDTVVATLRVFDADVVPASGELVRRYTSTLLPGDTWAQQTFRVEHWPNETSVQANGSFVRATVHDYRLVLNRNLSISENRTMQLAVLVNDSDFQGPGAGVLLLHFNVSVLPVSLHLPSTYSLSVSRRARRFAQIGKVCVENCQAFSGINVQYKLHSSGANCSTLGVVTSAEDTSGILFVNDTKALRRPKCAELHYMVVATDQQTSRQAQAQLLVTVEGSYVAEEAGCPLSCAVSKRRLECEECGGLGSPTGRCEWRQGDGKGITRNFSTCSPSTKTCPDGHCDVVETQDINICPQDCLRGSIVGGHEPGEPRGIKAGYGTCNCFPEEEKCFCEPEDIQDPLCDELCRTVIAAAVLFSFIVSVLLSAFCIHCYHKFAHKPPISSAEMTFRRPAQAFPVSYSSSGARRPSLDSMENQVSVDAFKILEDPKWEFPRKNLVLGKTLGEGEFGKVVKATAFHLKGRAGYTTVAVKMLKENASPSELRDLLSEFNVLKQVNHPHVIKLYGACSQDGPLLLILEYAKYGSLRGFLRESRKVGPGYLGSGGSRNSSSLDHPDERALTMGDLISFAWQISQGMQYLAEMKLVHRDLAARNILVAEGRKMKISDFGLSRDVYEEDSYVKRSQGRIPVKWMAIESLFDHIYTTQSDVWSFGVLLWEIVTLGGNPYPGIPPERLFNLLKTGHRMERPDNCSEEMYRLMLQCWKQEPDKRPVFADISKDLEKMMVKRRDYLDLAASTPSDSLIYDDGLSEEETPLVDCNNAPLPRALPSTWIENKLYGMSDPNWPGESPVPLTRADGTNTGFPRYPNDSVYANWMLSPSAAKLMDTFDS
T14 sequence (P07949 29-1114): as the sequence (P07949 29-1114 V804L) above, with L776V counted along it
T4 sequence (P42684 whole entry): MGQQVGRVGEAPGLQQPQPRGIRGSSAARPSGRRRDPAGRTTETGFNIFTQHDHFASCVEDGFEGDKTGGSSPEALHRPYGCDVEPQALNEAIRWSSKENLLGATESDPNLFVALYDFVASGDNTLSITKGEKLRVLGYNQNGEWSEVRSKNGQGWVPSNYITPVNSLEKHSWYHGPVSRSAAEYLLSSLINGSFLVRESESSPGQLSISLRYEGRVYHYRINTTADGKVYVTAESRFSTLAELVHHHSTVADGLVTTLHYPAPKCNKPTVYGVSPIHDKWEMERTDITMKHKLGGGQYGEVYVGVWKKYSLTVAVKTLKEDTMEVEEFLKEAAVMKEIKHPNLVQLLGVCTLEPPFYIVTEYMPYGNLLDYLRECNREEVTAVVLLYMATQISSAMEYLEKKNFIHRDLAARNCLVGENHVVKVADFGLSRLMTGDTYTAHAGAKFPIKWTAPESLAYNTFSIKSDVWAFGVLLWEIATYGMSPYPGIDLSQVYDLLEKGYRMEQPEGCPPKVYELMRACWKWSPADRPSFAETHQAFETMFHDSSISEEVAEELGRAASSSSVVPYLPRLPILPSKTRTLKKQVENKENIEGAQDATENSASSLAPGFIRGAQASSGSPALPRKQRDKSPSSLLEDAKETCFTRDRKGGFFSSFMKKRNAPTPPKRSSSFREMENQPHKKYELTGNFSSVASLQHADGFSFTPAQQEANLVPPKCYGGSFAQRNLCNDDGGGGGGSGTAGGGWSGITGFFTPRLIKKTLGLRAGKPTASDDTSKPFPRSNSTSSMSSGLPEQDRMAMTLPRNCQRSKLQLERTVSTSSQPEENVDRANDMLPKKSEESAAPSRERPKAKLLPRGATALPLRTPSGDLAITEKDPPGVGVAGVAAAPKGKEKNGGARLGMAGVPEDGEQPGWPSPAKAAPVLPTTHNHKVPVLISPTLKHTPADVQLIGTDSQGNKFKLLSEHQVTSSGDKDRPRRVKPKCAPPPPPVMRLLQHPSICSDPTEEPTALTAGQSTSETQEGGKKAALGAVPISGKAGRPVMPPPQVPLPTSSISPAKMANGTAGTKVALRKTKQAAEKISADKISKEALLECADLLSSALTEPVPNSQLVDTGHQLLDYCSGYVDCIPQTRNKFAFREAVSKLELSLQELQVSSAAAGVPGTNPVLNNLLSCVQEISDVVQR
T5 sequence (P10721 26-976 L576P): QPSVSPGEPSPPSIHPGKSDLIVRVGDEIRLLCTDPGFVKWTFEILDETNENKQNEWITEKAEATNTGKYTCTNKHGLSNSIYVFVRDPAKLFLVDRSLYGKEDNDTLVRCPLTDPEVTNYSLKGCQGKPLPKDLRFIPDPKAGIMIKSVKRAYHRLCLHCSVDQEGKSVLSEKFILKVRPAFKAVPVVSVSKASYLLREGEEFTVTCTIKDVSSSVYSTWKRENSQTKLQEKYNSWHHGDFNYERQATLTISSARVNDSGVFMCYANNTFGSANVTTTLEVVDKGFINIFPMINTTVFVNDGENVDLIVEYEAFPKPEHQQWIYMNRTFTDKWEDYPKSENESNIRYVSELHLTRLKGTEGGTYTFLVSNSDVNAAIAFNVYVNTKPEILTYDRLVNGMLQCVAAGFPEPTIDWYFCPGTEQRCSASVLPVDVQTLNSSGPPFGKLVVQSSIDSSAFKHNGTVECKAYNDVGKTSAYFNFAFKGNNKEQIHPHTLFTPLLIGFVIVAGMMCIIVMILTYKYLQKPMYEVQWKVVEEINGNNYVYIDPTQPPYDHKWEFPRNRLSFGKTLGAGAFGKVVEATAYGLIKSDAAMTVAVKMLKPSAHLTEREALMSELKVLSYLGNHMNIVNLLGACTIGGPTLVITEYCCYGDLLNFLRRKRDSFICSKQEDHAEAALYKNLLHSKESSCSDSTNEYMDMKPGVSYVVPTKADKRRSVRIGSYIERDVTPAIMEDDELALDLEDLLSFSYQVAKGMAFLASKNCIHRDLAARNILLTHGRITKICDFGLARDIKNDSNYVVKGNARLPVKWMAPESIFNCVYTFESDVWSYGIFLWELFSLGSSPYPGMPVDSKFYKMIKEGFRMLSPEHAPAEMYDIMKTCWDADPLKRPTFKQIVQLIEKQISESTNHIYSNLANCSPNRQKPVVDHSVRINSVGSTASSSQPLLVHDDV
T7 sequence (P10721 26-976 D816H): as the sequence (P10721 26-976 L576P) above, with P551L, D791H counted along it

Row | SMILES | % Ctrl, EGFR(T790M) [1] [% Ctrl] | % Ctrl, EGFR(L861Q) [2] [% Ctrl] | % Ctrl, FLT3(D835V) [3] [% Ctrl] | % Ctrl, ABL2 [4] [% Ctrl] | % Ctrl, KIT(L576P) [5] [% Ctrl] | % Ctrl, ABL1(M351T)-phosphorylated [6] [% Ctrl] | % Ctrl, KIT(D816H) [7] [% Ctrl] | % Ctrl, ABL1(E255K)-phosphorylated [8] [% Ctrl] | % Ctrl, EGFR(G719S) [9] [% Ctrl] | % Ctrl, ABL1(Q252H)-nonphosphorylated [10] [% Ctrl] | % Ctrl, ABL1(Q252H)-phosphorylated [10] [% Ctrl] | % Ctrl, ABL1(H396P)-nonphosphorylated [11] [% Ctrl] | % Ctrl, ABL1(H396P)-phosphorylated [11] [% Ctrl] | % Ctrl, EGFR [12] [% Ctrl] | % Ctrl, RET(V804L) [13] [% Ctrl] | % Ctrl, RET [14] [% Ctrl] | % Ctrl, ABL1(Y253F)-phosphorylated [15] [% Ctrl]
1 | Cc1cc2c([nH]1)/C=C1\C(=O)Nc3ccc(nc31)-c1ccccc1OCCCNC2=O [Ex.22, [3a(4)Z]-6-methyl-9,10,11,12-tetrahydro-1,18-(ethanediylidene)dipyrrolo[3,2-g:3′,4′-j][1,5,12]benzoxadiazacyclopentadecine-3,8(2H,5H)-dione] | 57 | 87 | 35 | 95 | 84 | 100 | 100 | 67 | 95 | 87 | 74 | 90 | 77 | 64 | 98 | 81 | 68
2 | Cc1cc2c([nH]1)/C=C1\C(=O)Nc3cc(Cl)c(cc31)OCCO[C@@H](C(=O)NC1CNC1)CN(C)C2=O [Ex. 133, [7R,16a(17)Z]-N-(azetidin-3-yl)-19-chloro-2,5-dimethyl-4,16-dioxo-4,5,6,7,9,10,15,16-octahydro-1H-12,14-(ethanediylidene)dipyrrolo[3,2-i:3′,4′-l][1,4,7]dioxazacyclopentadecine-7-carboxamide] | 98 | 97 | 2.3 | 96 | 8.7 | 58 | 43 | 70 | 99 | 61 | 49 | 49 | 67 | 99 | 58 | 24 | 57
3 | Cc1cc2c([nH]1)/C=C1\C(=O)Nc3cc(Cl)c(cc31)OCCO[C@@H](C(=O)NC1CCNCC1)CN(C)C2=O [Ex. 134, [7R,16a(17)Z]-19-chloro-2,5-dimethyl-4,16-dioxo-N-(piperidin-4-yl)-4,5,6,7,9,10,15,16-octahydro-1H-12,14-(ethaneidylidene)dipyrrolo[3,2-i:3′,4′-l][1,4,7]dioxazacyclopentadecine-7-carboxamide] | 92 | 95 | 3.9 | 77 | 5.1 | 25 | 56 | 50 | 92 | 32 | 18 | 25 | 35 | 96 | 55 | 27 | 32
